Test results reported in patent publication US20250154138A1, “Small Molecule IL-17A Modulators” (BeiGene, Ltd., priority 2022, published 2025).

Legend:
[1] = molecular target: human IL-17A / human IL-17RA (Homo sapiens (Human), UniProt Q16552); test: Human IL-17A biochemical assay (HTRF, blocking of IL-17A binding to IL-17RA); settings: 0.4 nM IL-17A, 0.3 nM IL-17RA, max compound concentration 10 uM
Procedure, shortened: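 HTRF competition: 0.4 nM recombinant human IL-17A pre-incubated 3 h at room temperature with compound (top 10 uM, 2.7-fold, 10 points) in HEPES pH 7.5 buffer, then 0.3 nM IL-17RA added for 1 h, then anti-6His-Tb/anti-human IgG-XL665 detection for 1 h.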

[2] = system: IL-17-induced GROα secretion from HT-29 cells; test: GROα release assay in human colorectal adenocarcinoma epithelial cell (HT-29, ELISA); assay type: cell-based; settings: Homo sapiens, HT-29, 48 h, 10 ng/mL IL-17A, highest concentration 10 μM, read-out: Cellular assay HT29 cell/CXCL1 IC50
Procedure, shortened: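 HT-29 cells were exposed 48 h at 37°C to IL-17A (final 10 ng/mL) preincubated 15 min with compound (4-fold dilutions, top 10 μM). Secreted GROα was quantified by ELISA against a standard curve, and IC50 obtained by four-parameter fitting.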

Chain of human IL-17A / human IL-17RA (Q16552 24-155): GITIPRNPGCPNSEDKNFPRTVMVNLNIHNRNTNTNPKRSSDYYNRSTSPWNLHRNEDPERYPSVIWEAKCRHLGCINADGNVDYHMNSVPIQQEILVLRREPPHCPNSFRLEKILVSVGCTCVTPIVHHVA

Row | Structure (SMILES) | IC50 [1] [µM] | IC50 [2] [µM]
1 | Cc1ccccc1NC(=O)C1(N2C[C@@H](C(C)C)NC2=O)Cc2ccc(NC(=O)[C@@H](NC(=O)c3nonc3C)C3CCC(F)(F)CC3)cc2C1 (stereo partly drawn) [Example 253, N-((1S)-1-(4,4-difluorocyclohexyl)-2-((2-((R)-4-isopropyl-2-oxoimidazolidin-1-yl)-2-(o-tolylcarbamoyl)-2,3-dihydro-1H-inden-5-yl)amino)-2-oxoethyl)-4-methyl-1,2,5-oxadiazole-3-carboxamide] | 0.355 | 0.331
2 | COc1ccccc1NC(=O)C1(N2C[C@@H](C(C)C)NC2=O)Cc2ccc(NC(=O)[C@@H](NC(=O)c3nonc3C)C(C3CC3)C3CC3)cc2C1 (stereo partly drawn) [Example 254, N-((2S)-1,1-dicyclopropyl-3-((2-((R)-4-isopropyl-2-oxoimidazolidin-1-yl)-2-((2-methoxyphenyl)carbamoyl)-2,3-dihydro-1H-inden-5-yl)amino)-3-oxopropan-2-yl)-4-methyl-1,2,5-oxadiazole-3-carboxamide] | 0.178 | 0.318
3 | Cc1nonc1C(=O)N[C@H](C(=O)Nc1ccc2c(c1)OC(CN1C[C@@H](C(F)(F)F)NC1=O)C2)C(C1CC1)C1CC1 (stereo partly drawn) [Example 255, N-((2S)-1,1-dicyclopropyl-3-oxo-3-((2-(((S)-2-oxo-4-(trifluoromethyl)imidazolidin-1-yl)methyl)-2,3-dihydrobenzofuran-6-yl)amino)propan-2-yl)-4-methyl-1,2,5-oxadiazole-3-carboxamide] | 0.165 | 0.666
4 | CC(C)n1nccc1C(=O)N[C@H](C(=O)Nc1ccc2c(c1)OC(CN1C[C@@H](C(F)(F)F)NC1=O)C2)C(C1CC1)C1CC1 (stereo partly drawn) [Example 256, N-((2S)-1,1-dicyclopropyl-3-oxo-3-((2-(((S)-2-oxo-4-(trifluoromethyl)imidazolidin-1-yl)methyl)-2,3-dihydrobenzofuran-6-yl)amino)propan-2-yl)-1-isopropyl-1H-pyrazole-5-carboxamide] | 0.0502 | 0.082
5 | Cc1nonc1C(=O)N[C@H](C(=O)Nc1ccc2c(c1)OC(CN1C[C@@H](C(F)(F)F)NC1=O)C2)C1CCC(F)(F)CC1 (stereo partly drawn) [Example 257, N-((1S)-1-(4,4-difluorocyclohexyl)-2-oxo-2-((2-(((S)-2-oxo-4-(trifluoromethyl)imidazolidin-1-yl)methyl)-2,3-dihydrobenzofuran-6-yl)amino)ethyl)-4-methyl-1,2,5-oxadiazole-3-carboxamide] | 0.938 | 2.5
6 | Cn1nccc1C(=O)N[C@H](C(=O)Nc1ccc2c(c1)OC(CN1C[C@@H](C(F)(F)F)NC1=O)C2)C1CCC(F)(F)CC1 (stereo partly drawn) [Example 258, N-((1S)-1-(4,4-difluorocyclohexyl)-2-oxo-2-((2-(((S)-2-oxo-4-(trifluoromethyl)imidazolidin-1-yl)methyl)-2,3-dihydrobenzofuran-6-yl)amino)ethyl)-1-methyl-1H-pyrazole-5-carboxamide] | 0.108 | 0.209
7 | Cc1nonc1C(=O)N[C@H](C(=O)Nc1ccc2c(c1)CC(C(=O)Nc1cccc(Cl)c1)(N1C[C@@H](C(C)C)NC1=O)C2)C(C1CC1)C1CC1 (stereo partly drawn) [Example 259, N-((2S)-1-((2-((3-chlorophenyl)carbamoyl)-2-((R)-4-isopropyl-2-oxoimidazolidin-1-yl)-2,3-dihydro-1H-inden-5-yl)amino)-3,3-dicyclopropyl-1-oxopropan-2-yl)-4-methyl-1,2,5-oxadiazole-3-carboxamide] | 1.02 | 1.97
8 | Cc1ccccc1NC(=O)C1(N2C[C@@H](C(C)C)NC2=O)Cc2ccc(NC(=O)[C@@H](NC(=O)c3nonc3C)C(C3CC3)C3CC3)cc2C1 (stereo partly drawn) [Example 261, N-((2S)-1,1-dicyclopropyl-3-((2-((R)-4-isopropyl-2-oxoimidazolidin-1-yl)-2-(o-tolylcarbamoyl)-2,3-dihydro-1H-inden-5-yl)amino)-3-oxopropan-2-yl)-4-methyl-1,2,5-oxadiazole-3-carboxamide] | 0.058 | 0.143
9 | Cc1nonc1C(=O)N[C@H](C(=O)Nc1ccc2c(c1)CC(C(=O)Nc1ccccc1F)(N1C[C@@H](C(C)C)NC1=O)C2)C(C1CC1)C1CC1 (stereo partly drawn) [Example 262, N-((2S)-1,1-dicyclopropyl-3-((2-((2-fluorophenyl)carbamoyl)-2-((R)-4-isopropyl-2-oxoimidazolidin-1-yl)-2,3-dihydro-1H-inden-5-yl)amino)-3-oxopropan-2-yl)-4-methyl-1,2,5-oxadiazole-3-carboxamide] | 0.0994 | 0.447
10 | Cc1nonc1C(=O)N[C@H](C(=O)Nc1ccc2c(c1)CC(C(=O)Nc1ccccc1Cl)(N1C[C@@H](C(C)C)NC1=O)C2)C(C1CC1)C1CC1 (stereo partly drawn) [Example 263, N-((2S)-1-((2-((2-chlorophenyl)carbamoyl)-2-((R)-4-isopropyl-2-oxoimidazolidin-1-yl)-2,3-dihydro-1H-inden-5-yl)amino)-3,3-dicyclopropyl-1-oxopropan-2-yl)-4-methyl-1,2,5-oxadiazole-3-carboxamide] | 0.0971 | 0.447
11 | Cc1nonc1C(=O)N[C@H](C(=O)Nc1ccc2c(c1)CC(C#N)(N1C[C@@H](C(C)C)NC1=O)C2)C(C1CC1)C1CC1 (stereo partly drawn) [Example 266, N-((2S)-1-((2-cyano-2-((R)-4-isopropyl-2-oxoimidazolidin-1-yl)-2,3-dihydro-1H-inden-5-yl)amino)-3,3-dicyclopropyl-1-oxopropan-2-yl)-4-methyl-1,2,5-oxadiazole-3-carboxamide] | 0.912 | 0.659
12 | Cc1nonc1C(=O)N[C@H](C(=O)Nc1ccc2c(c1)CC(C(=O)Nc1ccccc1C(F)F)(N1C[C@@H](C(C)C)NC1=O)C2)C(C1CC1)C1CC1 (stereo partly drawn) [Example 268, N-((2S)-1,1-dicyclopropyl-3-((2-((2-(difluoromethyl)phenyl)carbamoyl)-2-((R)-4-isopropyl-2-oxoimidazolidin-1-yl)-2,3-dihydro-1H-inden-5-yl)amino)-3-oxopropan-2-yl)-4-methyl-1,2,5-oxadiazole-3-carboxamide] | 0.0881 | 0.248
13 | Cc1nonc1C(=O)N[C@H](C(=O)Nc1ccc2c(c1)CC(C(=O)Nc1ccc(Cl)cc1)(N1C[C@@H](C(C)C)NC1=O)C2)C(C1CC1)C1CC1 (stereo partly drawn) [Example 269, N-((2S)-1-((2-((4-chlorophenyl)carbamoyl)-2-((R)-4-isopropyl-2-oxoimidazolidin-1-yl)-2,3-dihydro-1H-inden-5-yl)amino)-3,3-dicyclopropyl-1-oxopropan-2-yl)-4-methyl-1,2,5-oxadiazole-3-carboxamide] | 0.416 | 1.07
14 | Cc1nonc1C(=O)N[C@H](C(=O)Nc1ccc2c(c1)CC(C(O)C(F)(F)F)(N1CC(C(F)(F)F)NC1=O)C2)C(C1CC1)C1CC1 (stereo partly drawn) [Example 270, N-((2S)-1,1-dicyclopropyl-3-oxo-3-((2-(2-oxo-4-(trifluoromethyl)imidazolidin-1-yl)-2-(2,2,2-trifluoro-1-hydroxyethyl)-2,3-dihydro-1H-inden-5-yl)amino)propan-2-yl)-4-methyl-1,2,5-oxadiazole-3-carboxamide] | 0.2 | 0.35
15 | Cc1nonc1C(=O)N[C@H](C(=O)Nc1ccc2c(c1)OC(CN1C[C@@H](C(C)C)NC1=O)C2)C(C1CC1)C1CC1 (stereo partly drawn) [Example 271, N-((2S)-1,1-dicyclopropyl-3-((2-(((R)-4-isopropyl-2-oxoimidazolidin-1-yl)methyl)-2,3-dihydrobenzofuran-6-yl)amino)-3-oxopropan-2-yl)-4-methyl-1,2,5-oxadiazole-3-carboxamide] | 0.268 | 1.39
